± gives the expanded uncertainty stated by the source.
Experiment: xn = mol fraction of the nth substance listed
Details: 101 kPa, Liquid; for electrical conductivity: Frequency=0.0005 MHz, crison conductivimeter

CCCCn1cc[n+](C)c1.F[B-](F)(F)F [1-butyl-3-methylimidazolium tetrafluoroborate] + O
electrical conductivity (288.15 K, x2 = 0.4954): 1.4 ± 0.14 S/m
viscosity (288.15 K, x2 = 0): 173.5 ± 47 mPa·s
viscosity (288.15 K, x2 = 0.0476): 134.1 ± 29 mPa·s
viscosity (288.15 K, x2 = 0.1091): 108.4 ± 18 mPa·s
viscosity (288.15 K, x2 = 0.143): 89.3 ± 11 mPa·s
viscosity (288.15 K, x2 = 0.2389): 58.2 ± 2 mPa·s
viscosity (288.15 K, x2 = 0.3078): 45.6 ± 2.3 mPa·s
viscosity (288.15 K, x2 = 0.4): 32.5 ± 1.7 mPa·s
viscosity (288.15 K, x2 = 0.5054): 21.1 ± 1.1 mPa·s
viscosity (288.15 K, x2 = 0.6266): 13.77 ± 0.75 mPa·s
viscosity (288.15 K, x2 = 0.6992): 9.78 ± 0.55 mPa·s
viscosity (288.15 K, x2 = 0.7981): 6.69 ± 0.39 mPa·s
viscosity (288.15 K, x2 = 0.9032): 3.83 ± 0.25 mPa·s
electrical conductivity (298.15 K, x2 = 0): 0.352 ± 0.035 S/m
electrical conductivity (298.15 K, x2 = 0.2235): 0.785 ± 0.08 S/m
electrical conductivity (298.15 K, x2 = 0.3705): 1.3 ± 0.13 S/m
electrical conductivity (298.15 K, x2 = 0.4835): 1.86 ± 0.19 S/m
electrical conductivity (298.15 K, x2 = 0.4954): 2.02 ± 0.2 S/m
electrical conductivity (298.15 K, x2 = 0.6173): 2.75 ± 0.28 S/m
electrical conductivity (298.15 K, x2 = 0.7167): 3.64 ± 0.36 S/m
electrical conductivity (298.15 K, x2 = 0.777): 4.2 ± 0.42 S/m
electrical conductivity (298.15 K, x2 = 0.8168): 4.55 ± 0.46 S/m
electrical conductivity (298.15 K, x2 = 0.8458): 4.84 ± 0.48 S/m
electrical conductivity (298.15 K, x2 = 0.8684): 5 ± 0.5 S/m
electrical conductivity (298.15 K, x2 = 0.8879): 5.08 ± 0.51 S/m
electrical conductivity (298.15 K, x2 = 0.9031): 5.09 ± 0.51 S/m
electrical conductivity (298.15 K, x2 = 0.9151): 5.08 ± 0.51 S/m
electrical conductivity (298.15 K, x2 = 0.9245): 5.05 ± 0.51 S/m
electrical conductivity (298.15 K, x2 = 0.9322): 4.98 ± 0.5 S/m
electrical conductivity (298.15 K, x2 = 0.9396): 4.84 ± 0.49 S/m
electrical conductivity (298.15 K, x2 = 0.9457): 4.81 ± 0.48 S/m
electrical conductivity (298.15 K, x2 = 0.952): 4.73 ± 0.48 S/m
electrical conductivity (298.15 K, x2 = 0.9572): 4.65 ± 0.48 S/m
electrical conductivity (298.15 K, x2 = 0.9615): 4.54 ± 0.48 S/m
electrical conductivity (298.15 K, x2 = 0.9654): 4.41 ± 0.48 S/m
electrical conductivity (298.15 K, x2 = 0.9713): 4.15 ± 0.41 S/m
electrical conductivity (298.15 K, x2 = 0.9801): 3.64 ± 0.36 S/m
electrical conductivity (298.15 K, x2 = 0.9861): 3.14 ± 0.31 S/m
electrical conductivity (298.15 K, x2 = 0.9896): 2.68 ± 0.27 S/m
electrical conductivity (298.15 K, x2 = 0.993): 2.11 ± 0.21 S/m
electrical conductivity (298.15 K, x2 = 0.9951): 1.64 ± 0.16 S/m
electrical conductivity (298.15 K, x2 = 0.9961): 1.43 ± 0.14 S/m
electrical conductivity (298.15 K, x2 = 0.9974): 1.05 ± 0.1 S/m
electrical conductivity (298.15 K, x2 = 0.9982): 0.788 ± 0.079 S/m
electrical conductivity (298.15 K, x2 = 0.999): 0.475 ± 0.048 S/m
electrical conductivity (298.15 K, x2 = 0.9996): 0.2 ± 0.02 S/m
viscosity (298.15 K, x2 = 0): 99.2 ± 15 mPa·s
viscosity (298.15 K, x2 = 0.0476): 78.7 ± 7.8 mPa·s
viscosity (298.15 K, x2 = 0.1091): 65.6 ± 3.9 mPa·s
viscosity (298.15 K, x2 = 0.143): 55.1 ± 1.2 mPa·s
viscosity (298.15 K, x2 = 0.2389): 37.7 ± 1.9 mPa·s
viscosity (298.15 K, x2 = 0.3078): 30.2 ± 1.6 mPa·s
viscosity (298.15 K, x2 = 0.4): 22.1 ± 1.2 mPa·s
viscosity (298.15 K, x2 = 0.5054): 14.72 ± 0.79 mPa·s
viscosity (298.15 K, x2 = 0.6266): 9.82 ± 0.55 mPa·s
viscosity (298.15 K, x2 = 0.6992): 7.07 ± 0.41 mPa·s
viscosity (298.15 K, x2 = 0.7981): 4.89 ± 0.3 mPa·s
viscosity (298.15 K, x2 = 0.9032): 2.79 ± 0.2 mPa·s
electrical conductivity (308.15 K, x2 = 0.4954): 2.61 ± 0.26 S/m
viscosity (308.15 K, x2 = 0): 61.3 ± 2.8 mPa·s
viscosity (308.15 K, x2 = 0.0476): 49.8 ± 2.5 mPa·s
viscosity (308.15 K, x2 = 0.1091): 42.4 ± 2.2 mPa·s
viscosity (308.15 K, x2 = 0.143): 36.3 ± 1.9 mPa·s
viscosity (308.15 K, x2 = 0.2389): 25.9 ± 1.4 mPa·s
viscosity (308.15 K, x2 = 0.3078): 21.1 ± 1.1 mPa·s
viscosity (308.15 K, x2 = 0.4): 15.81 ± 0.85 mPa·s
viscosity (308.15 K, x2 = 0.5054): 10.8 ± 0.6 mPa·s
viscosity (308.15 K, x2 = 0.6266): 7.33 ± 0.43 mPa·s
viscosity (308.15 K, x2 = 0.6992): 5.34 ± 0.33 mPa·s
viscosity (308.15 K, x2 = 0.7981): 3.75 ± 0.25 mPa·s
viscosity (308.15 K, x2 = 0.9032): 2.47 ± 0.18 mPa·s
electrical conductivity (318.15 K, x2 = 0.4954): 3.25 ± 0.33 S/m
viscosity (318.15 K, x2 = 0): 40.4 ± 2.1 mPa·s
viscosity (318.15 K, x2 = 0.0476): 33.5 ± 1.7 mPa·s
viscosity (318.15 K, x2 = 0.1091): 29.1 ± 1.5 mPa·s
viscosity (318.15 K, x2 = 0.143): 25.3 ± 1.3 mPa·s
viscosity (318.15 K, x2 = 0.2389): 18.62 ± 0.99 mPa·s
viscosity (318.15 K, x2 = 0.3078): 15.47 ± 0.83 mPa·s
viscosity (318.15 K, x2 = 0.4): 11.81 ± 0.65 mPa·s
viscosity (318.15 K, x2 = 0.5054): 8.24 ± 0.47 mPa·s
viscosity (318.15 K, x2 = 0.6266): 5.68 ± 0.34 mPa·s
viscosity (318.15 K, x2 = 0.6992): 4.18 ± 0.27 mPa·s
viscosity (318.15 K, x2 = 0.7981): 2.96 ± 0.21 mPa·s
viscosity (318.15 K, x2 = 0.9032): 1.717 ± 0.15 mPa·s
